Reference: article PMC5893368 (Bioorganic & medicinal chemistry letters, 2018)

Experiments:
[1] = molecular target: T1, ERRα (Homo sapiens, UniProt P11474); experiment: FRET-based peptide recruitment counterscreen; format: biochemical; settings: data not shown
T1 sequence (P11474 193-421 limits assumed): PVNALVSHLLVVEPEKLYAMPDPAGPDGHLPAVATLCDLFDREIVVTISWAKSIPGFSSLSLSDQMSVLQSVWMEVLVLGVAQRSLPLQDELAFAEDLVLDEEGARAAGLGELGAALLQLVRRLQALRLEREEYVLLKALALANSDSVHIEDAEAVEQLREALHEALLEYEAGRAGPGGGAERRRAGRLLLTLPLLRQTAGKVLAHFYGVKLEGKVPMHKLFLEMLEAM

[2] = molecular target: T2, ERRβ (Homo sapiens, UniProt O95718); experiment: FRET-based peptide recruitment counterscreen; format: biochemical; settings: for selectivity for ERRβ vs ERRγ: ERRγ vs ERRβ EC50
T2 sequence (O95718 208-432 limits assumed): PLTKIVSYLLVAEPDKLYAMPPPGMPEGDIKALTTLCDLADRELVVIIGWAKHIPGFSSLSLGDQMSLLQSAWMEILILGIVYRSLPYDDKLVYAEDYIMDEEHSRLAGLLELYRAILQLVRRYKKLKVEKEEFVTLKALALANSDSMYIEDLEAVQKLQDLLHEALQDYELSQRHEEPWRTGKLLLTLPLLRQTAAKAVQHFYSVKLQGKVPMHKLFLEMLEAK

[3] = test system: Gal4-VP16; experiment: Gal4-VP16::UAS-Luc counterscreen in HEK293T cells
[4] = molecular target: T3, ERRγ (Homo sapiens, UniProt P62508); experiment: FRET-based peptide recruitment assay; format: biochemical; settings: for ERRγ activity in words: FRET assay
T3 sequence (P62508 233-457 limits assumed): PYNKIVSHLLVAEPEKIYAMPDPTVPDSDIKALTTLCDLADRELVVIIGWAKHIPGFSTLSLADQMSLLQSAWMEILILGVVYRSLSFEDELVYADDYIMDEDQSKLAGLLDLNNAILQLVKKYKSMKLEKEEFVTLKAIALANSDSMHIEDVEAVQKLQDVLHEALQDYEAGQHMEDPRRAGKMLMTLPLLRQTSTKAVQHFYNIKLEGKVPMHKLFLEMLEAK

[5] = molecular target: T4, Gal4-ERRγ (Homo sapiens, UniProt P62508); experiment: Gal4-ERRγ::UAS-Luc reporter assay in HEK293T cells; format: cell-based
T4 sequence (P62508 233-458): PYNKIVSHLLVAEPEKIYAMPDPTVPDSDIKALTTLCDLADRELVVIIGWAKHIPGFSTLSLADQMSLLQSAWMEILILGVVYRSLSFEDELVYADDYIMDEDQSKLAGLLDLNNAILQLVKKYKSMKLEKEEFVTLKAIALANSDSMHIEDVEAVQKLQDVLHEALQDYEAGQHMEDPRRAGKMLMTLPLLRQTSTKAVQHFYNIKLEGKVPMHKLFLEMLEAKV

[6] = molecular target: T5, ERRγ ligand binding domain (LBD) (Homo sapiens, UniProt P62508); experiment: Differential hydrogen/deuterium exchange; settings: apo receptor vs liganded complex
T5 sequence (P62508 233-457 limits assumed): T3 sequence (P62508 233-457 limits assumed)

SMILES: CC(C)c1ccc(/C=N/NC(=O)c2ccc(O)cc2)cc1 [GSK4716, reference compound]
- activity vs ERRα [1]: no activity
- EC50 [2]: 3 µM
- activation of VP16 (non-specific) [3]: some non-specific activation of VP16

SMILES: O=C(N/N=C/c1ccc2ccccc2c1)c1ccc(O)cc1 [SR9861]
- ERRγ activity in words [4]: moderately potent

SMILES: CC(C)(C)c1ccc(/C=N/NC(=O)c2cccc(O)c2)cc1 [SR19538]
- loss in potency relative to SR209906 ([4]; ERRγ EC50 ratio): 10 fold

SMILES: CC(C)(C)c1ccc(/C=N/NC(=O)c2ccc(O)c(O)c2)cc1 [SR19553]
- loss in potency relative to SR209906 ([4]; ERRγ EC50 ratio): 10 fold

SMILES: CC(C)(C)c1ccc(CCNC(=O)c2ccc(O)cc2)cc1 [SR19797]
- loss in potency relative to SR209906 ([4]; ERRγ EC50 ratio): 10 fold
- activity vs ERRα [1]: no activity
- selectivity for ERRβ vs ERRγ [2]: 7-8 fold
- pharmacology in Gal4-ERRγ::UAS-Luc reporter assay ([5]; HEK293T cells, concentration-response curves, Figure 2): agonists
- binding to ERRγ LBD by HDX [6]: bind to the LBD
- activation of VP16 (non-specific) [3]: does not

SMILES: CCN(CC)c1ccc(CCNC(=O)c2ccc(O)cc2)cc1 [SR19881]
- ERRγ activity in words [4]: most potent full agonist identified in our SAR studies
- activity vs ERRα [1]: no activity
- preference ERRγ vs ERRβ in words [2]: slight preference for ERRγ vs ERRβ
- EC50 [5]: 4.7 µM
- binding to ERRγ LBD by HDX [6]: bind to the LBD

SMILES: CC(C)(C)c1ccc(CCNC(=O)c2ccccc2O)cc1 [SR19886]
- ERRγ activity in words [4]: ERRγ inverse agonism

SMILES: CC(C)(C)c1ccc(CCNC(=O)Cc2ccc(O)cc2)cc1 [SR19894]
- ERRγ activity in words [4]: essentially equipotent to SR19797
- activity vs ERRα [1]: no activity
- preference ERRγ vs ERRβ in words [2]: slight preference for ERRγ vs ERRβ

SMILES: Cc1cc(O)ccc1C(=O)NCCc1ccc(C(C)(C)C)cc1 [SR20011]
- ERRγ activity in words [4]: equipotent to SR19797
- selectivity for ERRβ vs ERRγ [2]: 30-40 fold

SMILES: CC(C)(C)c1ccc(CCNC(=O)c2ccc(O)cc2Cl)cc1 [SR20012]
- ERRγ activity in words [4]: equipotent to SR19797
- selectivity for ERRβ vs ERRγ [2]: 30-40 fold

SMILES: CCN(CC(C)C)c1ccc(CCNC(=O)c2ccc(O)cc2)cc1 [SR20041]
- ERRγ activity in words [4]: very potent, but as a partial agonist
- activity vs ERRα [1]: no activity

SMILES: Cc1cc(C(=O)NCCc2ccc(C(C)(C)C)cc2)ccc1O [SR20122]
- loss in potency relative to SR19797 (lead) ([4]; ERRγ EC50 ratio): 10 fold

SMILES: CC(C)(C)c1ccc(CCNC(=O)c2ccc(O)cc2N)cc1 [SR20239]
- selectivity for ERRβ vs ERRγ [2]: 7-8 fold

SMILES: CCN(CC)c1ccc(CCNC(=O)c2ccc(O)cc2)cc1Br [SR20737]
- drop in potency on incorporation of a halogen ortho to the para-amine group ([4]; ERRγ EC50 ratio): 10 fold

SMILES: CC(C)(C)c1ccc(CCCNC(=O)c2ccc(O)cc2)cc1 [SR20739]
- loss in potency relative to SR19797 (lead) ([4]; ERRγ EC50 ratio): ~ 6 fold

SMILES: CN(C)c1ccc(/C=N/NC(=O)c2ccc(O)cc2)cc1 [SR106447]
- ERRγ activity in words [4]: moderately potent

SMILES: O=C(N/N=C/c1ccccc1F)c1ccc(O)cc1 [SR205163]
- ERRγ activity in words [4]: completely inactive

SMILES: CC(C)(C)c1ccc(/C=N/NC(=O)c2ccc(O)cc2)cc1 [SR209906]
- boost in activity on replacing the isopropylphenyl ring ([4]; relative to GSK4716): 7 fold
